Assay results: patent US20190022162A1, “COMBINATION ANTICANCER ENDOWED WITH ANTITUMOR ACTIVITY, COMPRISING ALKALOIDS OF CHELIDONIUM MAJUS” (International Society for Drug Development S.R.L., priority 2015, published 2019)

What was measured:
[1] = tested on: MIA PaCa-2 pancreatic cancer cell line; assay: Cell counting (Trypan blue, Neubauer chamber), MIA PaCa-2 cells; type: cell-based; details: for percentage of viable cells relative to the control: 48 h
Description: (§1) The MIA PaCa-2 cells were cultivated in T25 flasks and treated with the agents after reaching a confluence of 90%. After a 48 hours treatment, the cells were detached with trypsin-EDTA and suspended in medium consisting of 50% DMEM and 50% Trypan blue. The number of viable cells after each treatment was estimated by using the Neubauer counting chamber, excluding those cells which turned out positive to Trypan blue. At least three counts were made for each treatment.
The percentage of viable cells relative to the control was determined by the ratio between the number of treated cells and the number of untreated cells.

[2] = tested on: MIA PaCa-2 (pancreatic carcinoma); assay: WST-1 assay (dehydrogenase activity / cell viability), MIA PaCa-2 cells
[3] = tested on: U343 (glioblastoma); assay: WST-1 assay (dehydrogenase activity / cell viability), U343 cells; details: 48 h
[4] = Cell counting (Trypan blue, Neubauer chamber), HDF cells; type: cell-based, human; details: human, human dermal fibroblasts (HDF)
Description: (§2) For sake of completeness' of information and for the purpose of evaluating the differential cytotoxicity exerted both by the individual components of the combinations and by the combinations themselves on tumour and normal cells, the same treatments tested on U343 cells were also conducted on human dermal fibroblasts (HDF), chosen as a model of cells not concerned by tumour pathologies; this allowed, in the case of treatments tested on U343 cells, evaluations of the differential effects of the tested agents against tumour cells and against a model of normal cells, in accordance with the invention.
as §1, with “U343 cells and the HDF” for “MIA PaCa-2”, “After” for “After a”, “hours of” for “hours”, “excluding” for “excluding those”, “cells” for “cells which turned out”, “countings” for “counts”
(§3) The percentage of viable cells compared to the control was determined by the ratio between the number of treated cells and the number of untreated cells.

[5] = tested on: human dermal fibroblasts (HDF); assay: as above; type: cell-based
Description: as §2
as §1, with “U343 cells and the HDF” for “MIA PaCa-2”, “After” for “After a”, “hours of” for “hours”, “excluding” for “excluding those”, “cells” for “cells which turned out”, “countings” for “counts”
as §3

[6] = tested on: U343 cells / HDF cells; assay: Therapeutic Favourability Index (ratio of viable U343 to viable HDF cells); type: cell-based
From the text: It may be useful to remind that the TFI parameter allows estimating the ratio between desired cytotoxicity (on U343 cells) and undesired cytotoxicity (on HDF cells used as a normal cell model). The lower the value of the TFI parameter, the more the assayed agent is adequate for therapeutic use, since this parameter measures the ratio between desired cytotoxicity (on tumour cells) and undesired cytotoxicity (on the cells of the non-tumour model).

[7] = tested on: U343 (glioblastoma); assay: Cell counting (Trypan blue, Neubauer chamber), U343 cells; type: cell-based; details: for percentage of viable cells compared to the control: 48 h
Description: as §1, with “U343 cells and the HDF” for “MIA PaCa-2”, “After” for “After a”, “hours of” for “hours”, “excluding” for “excluding those”, “cells” for “cells which turned out”, “countings” for “counts”
as §3

[8] = 2.154 μM (combination equimolar)
[9] = 4.642 μM (combination equimolar)

Nc1ccn([C@@H]2O[C@H](CO)[C@@H](O)C2(F)F)c(=O)n1 [Gemcitabine, gemcitabine, reference compound]
percentage of viable cells relative to the control ([1]; Gemcitabine 20 μM): 33%
viability at 20 µM ([1]; Homo sapiens, MIA PaCa-2, 48 h, Gemcitabine 20 μM, read-out: percentage of viable cells relative to the control): > 30%
effect on cell metabolic activity ([2]; agent alone, 0.1-10 μM): essentially negligible increase

CN1Cc2c(ccc3c2OCO3)[C@@H]2[C@H]1c1cc3c(cc1C[C@@H]2O)OCO3 [Chelidonine, chelidonine]
Δ (viability %) ([3]; 0.1 μM (combination equimolar)): 2.4722%
Δ (viability %) ([3]; 1 μM (combination equimolar)): 25.9168%
Δ (viability %) [3, 8]: 40.0495%
Δ (viability %) [3, 9]: 24.4335%
Δ (viability %) ([3]; 10 μM (combination equimolar)): 14.3799%

Cn1nnc2c(C(N)=O)ncn2c1=O [temozolomide, reference compound]
cytotoxicity at 48 h ([4]; direct administration, decrease up to, read-out: reduction in the percentage of viable HDF cells): 60 to 70%

COc1ccc2cc3[n+](cc2c1OC)CCc1cc2c(cc1-3)OCO2 [Berberine, berberine]
percentage of viable cells relative to the control ([1]; Ber 0.4 μM): 88%
percentage of viable cells relative to the control ([1]; Ber 2.0 μM): 51%
percentage of viable cells relative to the control ([1]; Ber 10 μM, listed as Ber): 33%
percentage of viable cells relative to the control ([1]; Ber 50 μM): 24%
% proliferation of HDF against control ([5]; 0.464 μM): 82.65%
% proliferation of HDF against control ([5]; 2.154 μM): 71.41%
% proliferation of HDF against control ([5]; 10.0 μM): 67.35%
viability at 48 h, 0.464 μM ([4]; Ber 0.464 μM, 48 h, read-out: percentage of viable cells compared to the control): 82.7%
viability at 48 h, 2.154 μM ([4]; Ber 2.154 μM, 48 h, read-out: percentage of viable cells compared to the control): 70.4%
viability at 48 h, 10 μM ([4]; Ber 10 μM, 48 h, read-out: percentage of viable cells compared to the control): 67.3%
TFI index U343/HDF % proliferation ratio ([6]; 0.464 μM): 1.137
TFI index U343/HDF % proliferation ratio ([6]; 2.154 μM): 1.173
TFI index U343/HDF % proliferation ratio ([6]; 10.0 μM): 0.888
% proliferation of U343 against control ([7]; 0.464 μM): 94.00%
% proliferation of U343 against control ([7]; 2.154 μM): 82.60%
% proliferation of U343 against control ([7]; 10.0 μM): 59.80%
percentage of viable cells compared to the control ([7]; Ber 0.464 μM): 94%
percentage of viable cells compared to the control ([7]; Ber 2.154 μM): 82.6%
percentage of viable cells compared to the control ([7]; Ber 10 μM): 59.8%
Δ (viability %) ([2]; 0.215 μM (combination equimolar), 48 h): 5.73%
decrease in the metabolic activity ([2]; starting from concentrations slightly lower than 10 μM): approx. 50%
Δ (viability %) ([3]; 0.1 μM (combination equimolar)): 23.2128%
Δ (viability %) ([3]; 0.215 μM (combination equimolar)): 12.3254%
Δ (viability %) ([3]; 0.464 μM (combination equimolar)): 36.3599%
Δ (viability %) ([3]; 1 μM (combination equimolar)): 27.3008%
Δ (viability %) [3, 8]: 15.4889%
Δ (viability %) [3, 9]: 11.3394%
Δ (viability %) ([3]; 10 μM (combination equimolar)): 10.3533%
